Laboratory results reported in patent publication US20250213560A1, “NITROGEN-CONTAINING HETEROCYCLIC COMPOUNDS HAVING PHENYL GROUP AND USES THEREOF” (BNH RESEARCH CO., LTD., priority 2022, published 2025).

Key:
[1] = test system: mouse barrel cortex (layer 4); assay: Ex vivo synaptic plasticity (TC EPSC potency, GABA/AMPA ratio) in barrel cortex after in vivo administration; conditions: C57BL/6J mice
Source text: Eight weeks old male C57BL/6J mice were anesthetized with isoflurane during surgery. The mice were then be placed in a stereotaxic frame (RWD Life Science, China). The parietal and the frontal bones were exposed by a sagittal incision of the scalp at the midline from the level of the eyes to the occipital protuberance. A small burr hole was drilled after exposing the skull. The injection cannula was placed at the following coordinates: (Mouse: Bregma-3.30, lateral-1.50, and ventral 0.7 mm). Sterile saline solution (+/−a compound of the present disclosure) was perfused at a constant flow rate of […] through the injection cannula using a mini-Os pump (DURECT Corporation ALZET Osmotic Pumps, CA). Implantation was done in layer 4 of the barrel cortex ipsilateral. To estimate extent of the diffusion of the injected compound in layer 4 barrel cortex during pump injection, methylene blue was first injected to stain the diffusion area. On average methylene blue diffused to 2000.0 μm away from the injection site (the total area of the barrel cortex region is about 1500 μm). Based on this analysis, the present inventors recorded from barrel cortex area.
The compound was diluted to 25 mg/kg using DMSO: PEG400: Saline (5:55:40). The compound was administered intraperitoneal at 10:00 a.m. daily (i.p. volume was 200 ul) for about 11 to 12 days. Control group was also administered by i.p. injection in the same manner using the vehicle (DMSO: PEG400: Saline (5:55:40)). 5 mice were used for the compound administration group and the control group, respectively.
For TC or hippocampus slice preparation, 9 to 10 weeks-old male C57BL/6J mice were anesthetized with isoflurane. Then, the brain was rapidly cooled via transcardial perfusion with ice-cold sucrose-artificial cerebrospinal fluid (aCSF). The brain was removed and placed in ice-cold sucrose aCSF. Paracoronal slices were prepared at an angle of 50° relative to the midline on a ramp at an angle of 10°. Then, slices were incubated in aCSF at 35° C. for 30 minutes to recover. […]
Whole cell recordings were made using a multiclamp 700A (Molecular devices, Sunnyvale, CA)digitized at 10 kHz and filtered at 2 kHz. Input resistance and series resistance were monitored continuously during recordings, as previously described (see Isaac, Crair, Nicoll, & Malenka, 1997, Silent synapses during development of thalamocortical inputs, DOI: 10.1016/s0896-6273 (00) 80267-6).
For the minimal stimulation protocol (Potency), VB thalamic stimulation intensity was adjusted to find the lowest intensity that elicited a mixture of synaptic responses and failures. Failure rate was calculated as the number of failures/total number of trials. […]

APP/PS1 mice = assay: Hippocampal fEPSP I/O curve and LTP in Alzheimer's model mice; format: in vivo, mouse; conditions: hippocampus CA1, Os pump ventricular infusion 3 μM
Source text: Field recordings were made with a concentric bipolar electrode positioned in the stratum radiatum of the CA1 region using an extracellular glass pipette (3.5 M (2) filled with aCSF. Specifically, fEPSPs were evoked by Schaffer collateral (SC)/commissural fibers with a concentric bipolar electrode placed 200 to 300 μm from the recording pipette. Stimulation was delivered through a bipolar electrode (FHC, Bowdoin, ME, USA) placed in the Schaffer collateral-CA1 (SC). Te SC circuit was visualized using differential interference contrast (DIC) microscopy at 4× magnification and identified by the ability to evoke short and constant latency field excitatory postsynaptic potentials (fEPSPs) at CA1 synapses by SC input stimulation. In all fEPSP experiments, the test stimulation were measured prior to the beginning of all the experiments (30 μA) and a test-pulse stimulation strength that evokes 50% of the maximum fEPSP was used. Baseline synaptic responses was recorded for 30 minutes, and then long-term potentiation (LTP) was induced by high-frequency stimulation (HFS; 100 Hz, 4 trains, 1 s duration, 20 s inter-train interval). […]
Excitatory postsynaptic potential (EPSP) was recorded by the whole-cell patch clamp method using a patch clamp amplifier (molecular devices, USA). […] It was then recorded for 60 minutes (LTP). […]

[2] = Os pump, 3 μM continuously for 2 weeks, barrel cortex layer 4
[3] = intraperitoneal 25 mg/kg once a day for about 11 or 12 days

With `C[C@H]1CC[C@@H](C(=O)O)CN1C(=O)Cc1ccc(-c2cncnc2)cc1` [BnH12003, (3R,6S)-6-methyl-1-(2-(4-(pyrimidin-5-yl)phenyl)acetyl) piperidine-3-carboxylic acid] the “GABA/AMPA ratio (balance of excitation/inhibition)” value [1, 2] was “balance of excitation/inhibition was maintained”, the “excitatory TC synaptic potency (TC potency)” value [1, 2] was “significantly increased” and the “GABA/AMPA ratio (balance of excitation/inhibition)” value [1, 3] was “maintaining the balance of excitation/inhibition”. The “TC synaptic potency in the sensory cortex” value [1, 3] was “increase TC synaptic potency”, the “I/O curve of field EPSP (synaptic efficacy)” value (APP/PS1 mice) was “synaptic efficacy was increased” and the “LTP of EPSP, excitatory SC pathway” value (APP/PS1 mice) was “significantly increased”.
